Assay results: patent US20090042912A1, “DIPHENYLIMIDAZOLYL COMPOUNDS AS INHIBITORS OF beta-SECRETASE” (Wyeth, priority 2004, published 2009)
Where two headings read alike, the source gives them in different places.

Assays:
[1] = target: T1, human BACE2 (Homo sapiens, UniProt Q9Y5Z0); experiment: Fluorescent kinetic assay for human recombinant BACE 2 (WABC-6 peptide substrate); format: biochemical; details: for IC50: 1.5 nM enzyme, 25 μM substrate, pH 4.5, room temperature; for inhibition at 25 µM: read-out: BACE2. % inhibition
T1 sequence (Q9Y5Z0 63-518): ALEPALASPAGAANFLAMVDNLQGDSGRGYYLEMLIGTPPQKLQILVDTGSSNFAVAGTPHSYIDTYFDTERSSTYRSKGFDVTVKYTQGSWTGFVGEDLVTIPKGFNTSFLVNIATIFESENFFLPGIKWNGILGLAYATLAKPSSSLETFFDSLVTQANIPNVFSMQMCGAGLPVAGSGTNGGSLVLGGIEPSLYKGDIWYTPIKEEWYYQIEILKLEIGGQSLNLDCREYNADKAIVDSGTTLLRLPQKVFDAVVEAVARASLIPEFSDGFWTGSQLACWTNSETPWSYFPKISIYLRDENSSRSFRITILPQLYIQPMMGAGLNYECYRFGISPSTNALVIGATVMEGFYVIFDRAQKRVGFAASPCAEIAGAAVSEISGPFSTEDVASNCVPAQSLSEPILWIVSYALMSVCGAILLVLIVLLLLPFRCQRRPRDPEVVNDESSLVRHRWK
Method: Fluorescent Kinetic Assay for Human Recombinant BACE 2
This assay is used to provide kinetic and selectivity parameters for the analyses of the tested compounds.
Temperature: room temperature.
Dilution and Mixing Steps: Total Reaction Volume.: 100 μL • 1.
Readings at λex 320 nm, λem 420 nm are taken every 40-sec for 30 min at room temperature and to determine the linear slope for substrate cleavage rate (vi).

[2] = target: human BACE1 (Homo sapiens, UniProt P56817); experiment: Fluorescent kinetic assay, inhibition of BACE1 (WABC-6 peptide substrate); format: biochemical; details: 10 nM enzyme, 25 μM substrate, pH 4.5, room temperature; read-out: IC50 (μM) BACE1.
Method: Evaluation of the Enzyme Activity of Test Compounds and the Inhibition of hBACE1, MuBACE1 and hBACE2 by Test Compounds
The concentration is determined by absorbance at 354 nm using an extinction coefficient ε of 18172 M^−1cm^−1, The substrate stock is stored in small aliquots at −80° C. [Substrate Stock]=ABS^354 nm*10^6/18172 ([…])
Dilution and mixing steps: total reaction volume: 100 μL • 1. 2× inhibitor dilutions in buffer A (66.7 mM Na-Acetate, pH 4.5, 0.0667% CHAPS) are prepared, • 2. 4× enzyme dilution in buffer A (66.7 mM Na-Acetate, pH 4.5, 0.0667% CHAPS) are prepared, • 3. 100 μM substrate dilution in 1× PBS is prepared, • 4. 50 μL 2× Inhibitor and 25 μL 100 μM substrate are added to each well of 96-well plate (from DYNEX Technologies, VWR #: 11311-046), the immediately 25 μL 4× enzyme are added to the inhibitor and substrate mixer, the fluorescence readings are initiated.
Readings at λex 320 nm and λem 420 nm are taken every 40-sec for 30 min at room temperature to determine the linear slope for substrate cleavage rate (vi).

Chain of human BACE1 (P56817 46-501): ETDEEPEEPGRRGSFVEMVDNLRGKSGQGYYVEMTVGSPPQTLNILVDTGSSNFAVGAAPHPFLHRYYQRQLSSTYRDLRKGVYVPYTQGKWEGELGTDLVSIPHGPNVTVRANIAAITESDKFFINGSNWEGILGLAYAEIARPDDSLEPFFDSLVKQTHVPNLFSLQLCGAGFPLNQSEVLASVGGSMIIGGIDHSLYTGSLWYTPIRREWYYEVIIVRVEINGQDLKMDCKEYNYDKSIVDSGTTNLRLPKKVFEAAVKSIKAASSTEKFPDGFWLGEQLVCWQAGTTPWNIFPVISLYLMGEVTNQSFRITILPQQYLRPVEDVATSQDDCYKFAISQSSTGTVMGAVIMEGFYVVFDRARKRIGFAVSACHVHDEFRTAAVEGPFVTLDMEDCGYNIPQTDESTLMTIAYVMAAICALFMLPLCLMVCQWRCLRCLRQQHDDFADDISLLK

| SMILES | melting point [°C] | IC50 [1] [µM] | IC50 [2] [µM] | inhibition at 25 µM ([1]; at 25 μM) [%] | inhibition at 15.5 µM ([1]; at 15.5 μM) [%] | inhibition at 25 µM [1] [%] |
| --- | --- | --- | --- | --- | --- | --- |
| NC1=NC(c2ccc(OC(F)(F)F)cc2)(c2cccc(-c3cncc(F)c3)c2)C2=NCCCN12 (stereo not drawn) [Example 19, 8-[3-(5-fluoropyridin-3-yl)phenyl]-8-[4-(trifluoromethoxy)phenyl]-2,3,4,8-tetrahydroimidazo[1,5-a]pyrimidin-6-amine] | 112 to 118 | 3.22 | 0.08 | – | – | – |
| COc1ccc(C2(c3ccc(F)c(-c4cccnc4F)c3)N=C(N)N3CCCN=C32)cc1 (stereo not drawn) [Example 24, 8-[4-fluoro-3-(2-fluoropyridin-3-yl)phenyl]-8-(4-methoxyphenyl)-2,3,4,8-tetrahydroimidazo[1,5-a]pyrimidin-6-amine] | 115 | 8.18 | 0.06 | – | – | – |
| NC1=NC(c2ccc(OC(F)(F)F)cc2)(c2ccc(F)c(-c3cncnc3)c2)C2=NCCCN12 (stereo not drawn) [Example 13, 8-{[(4-Fluoro-3-pyrimidin-5-yl)phenyl]-8-[4-(trifluoromethoxy)phenyl]-2,3,4,8-tetrahydroimidazo[1,5-a]pyrimidin-6-yl}amine] | 105 to 115 | – | 0.15 | 25 | – | – |
| NC1=NC(c2ccc(OC(F)(F)F)cc2)(c2ccc(F)c(-c3cncc(F)c3)c2)C2=NCCCN12 (stereo not drawn) [Example 14, {8-[4-Fluoro-3-(5-fluoropyrimidin-3-yl)phenyl]-8-[4-(trifluoromethoxy)phenyl]-2,3,4,8-tetrahydroimidazo[1,5-a]pyrimidin-6-yl}amine] | 94 to 105 | – | 0.14 | – | – | 65 |
| COc1ccc(C2(c3ccc(F)c(-c4cncnc4)c3)N=C(N)N3CCCN=C32)cc1 (stereo not drawn) [Example 23, 8-(4-fluoro-3-pyrimidin-5-ylphenyl)-8-(4-methoxyphenyl)-2,3,4,8-tetrahydroimidazo[1,5-a]pyrimidin-6-amine] | 122 | – | 0.12 | 42 | – | – |
| COc1ccc(C2(c3cccc(-c4cccnc4F)c3)N=C(N)N3CCCN=C32)cc1 (stereo not drawn) [Example 21, 8-[3-(2-fluoropyridin-3-yl)phenyl]-8-(4-methoxyphenyl]-2,3,4,8-tetrahydroimidazo[1,5-a]pyrimidin-6-amine] | 117 to 121 | 6.57 | 0.09 | – | – | – |
| NC1=NC(c2ccc(OC(F)(F)F)cc2)(c2cccc(-c3cncc(Cl)c3)c2)C2=NCCCN12 (stereo not drawn) [Example 20, 8-[3-(5-chloropyridin-3-yl)phenyl]-8-[4-(trifluoromethoxy)phenyl]-2,3,4,8-tetrahydroimidazo[1,5-a]pyrimidin-6-amine] | 112 to 116 | 0.54 | 0.04 | – | – | – |

The next lines start with results.

| melting point [°C] | IC50 [1] [µM] | IC50 [2] [µM] | inhibition at 25 µM ([1]; at 25 μM) [%] | inhibition at 15.5 µM ([1]; at 15.5 μM) [%] | SMILES | inhibition at 25 µM [1] [%] |
| --- | --- | --- | --- | --- | --- | --- |
| 220 to 226 | 1.15 | 0.01 | – | – | NC1=NC(c2ccc(OC(F)F)cc2)(c2cccc(-c3cccnc3F)c2)C2=NCC3(CCC3)CN12 (stereo not drawn) [Example 47, 8′-[4-(difluoromethoxy)phenyl]-8′-[3-(2-fluoropyridin-3-yl)phenyl]-2′,8′-dihydrospiro[cyclobutane-1,3′-imidazo[1,5-a]pyrimidin]-6′-amine] | – |
| 104 to 114 | 1.23 | 0.018 | – | – | NC1=NC(c2ccc(OC(F)F)cc2)(c2cccc(-c3cccnc3F)c2)C2=NCCCN12 (stereo not drawn) [Example 41, 8-(4-Difluoromethoxyphenyl)-8-[3-(2-fluoropyridin-3-yl)phenyl]-2,3,4,8-tetrahydroimidazo[1,5-a]pyrimidin-6-ylamine] | – |
| 96 to 107 | 0.55 | 0.01 | – | – | NC1=NC(c2ccc(OC(F)F)cc2)(c2cccc(-c3cccnc3F)c2)C2=NCC3(COC3)CN12 (stereo not drawn) [Example 46, 8-[4-(Difluoromethoxy)phenyl]-8-[3-(2-fluoropyridin-3-yl)phenyl]-2,8-dihydrospiro[imidazo[1,5-a]pyrimidine-3,3′-oxetan]-6-amine] | – |
| 94 to 102 | 4.68 | 0.06 | – | – | NC1=NC(c2ccc(OC(F)(F)F)cc2)(c2cccc(-c3cc(F)cnc3F)c2)C2=NCCCN12 (stereo not drawn) [Example 28] | – |
| 95 to 105 | – | 0.093 | – | 47 | COCOc1ccc(C2(c3cccc(-c4cccnc4F)c3)N=C(N)N3CCCN=C32)cc1 (stereo not drawn) [Example 38, 8-[3-(2-Fluoro-pyridin-3-yl)-phenyl]-8-(4-methoxymethoxy-phenyl)-2,3,4,8-tetrahydro-imidazo[1,5-a]pyrimidin-6-ylamine] | – |
| 95 to 99 | – | 0.74 | 53 | – | NC1=NC(c2cccc(-c3cccnc3F)c2)(c2ccc3c(c2)OC(F)(F)O3)C2=NCCCN12 (stereo not drawn) [Example 43, 8-(2,2-Difluoro-benzo[1,3]dioxol-5-yl)-8-[3-(2-fluoro-pyridin-3-yl)-phenyl]-2,3,4,8-tetrahydro-imidazo[1,5-a]pyrimidin-6-ylamine] | – |
| 202 to 208 | 9.87 | 0.083 | – | – | CCOc1ccc(C2(c3cccc(-c4cccnc4F)c3)N=C(N)N3CCCN=C32)cc1OCC (stereo not drawn) [Example 25] | – |
